In patent US20210046162A1, “Teriparatide Use for Bone Stress Fractures/Reactions” (University of South Carolina, priority 2019, published 2021):
Read-outs that look alike come from different tables or passages of the source.

Legend:
[1] = in vivo, sc
Excerpt: (§1) As used herein “peak concentration (CMAX) of PTH peptide in a blood plasma”, “area under concentration vs. time curve (AUC) of PTH peptide in a blood plasma”, “time to maximal plasma concentration (tMAX) of PTH peptide in a blood plasma” are pharmacokinetic parameters known to one skilled in the art. […] The “concentration vs. time curve” measures the concentration of PTH peptide in a blood serum of a subject vs. time after administration of a dosage of PTH peptide to the subject either by intranasal, intramuscular, subcutaneous, or other parenteral route of administration. “CMAX” is the maximum concentration of PTH peptide in the blood serum of a subject following a single dosage of PTH peptide to the subject. “TMAX” is the time to reach maximum concentration of PTH peptide in a blood serum of a subject following administration of a single dosage of PTH peptide to the subject. […] Mean changes of teriparatide acetate (in picograms per liter) in plasma after a single subcutaneous injection of teriparatide (filled circle 56.5 μg, filled triangle 28.2 μg) to 360 min. Bars represent standard deviation.

[2] = test system: tibial fractures; details: rats, after 20 and 40 days of healing, cited from earlier work
[3] = test system: stress fractures (DTSFs); experiment: Teriparatide therapy of stress fractures in NCAA collegiate athletes (FIG. 8); format: in vivo, humans; details: 20 mcg dose, at least 28 days
Excerpt: The current disclosure has administered teriparatide at the 20 mcg dose to young adult NCAA collegiate athletes who have DTSFs. Our promising clinical findings, see, e.g., FIG. 8, have led us to hypothesize that teriparatide will have a positive effect on bone healing and return to duty among service members with DTSFs. While a dosage of 20 mcg has been found effective, other dosages are considered within the scope of this application such as ranges from 5-50 mcg, 10-40 mcg, 15-35 mcg, 20-30 mcg, etc. In one embodiment, the preferred range is 10 mcg-40 mcg.
The PTH peptide can also be administered in conjunction with other therapeutic agents such as bisphonates, calcium, vitamin D, estrogen or estrogen-receptor binding compounds, selective estrogen receptor modulators (SERMs), bone morphogenic proteins and/or calcitonin. In one embodiment, 500 mg calcium may be administered daily for the duration of treatment with teriparatide. Vitamin D may also be administered along with teriparatide. Unless a patient is hypercalemic, defined as a total serum calcium concentration >10.4 mg/dL (>2.60 mmol/L) or ionized serum calcium >5.2 mg/dL (>1.30 mmol/L), calcium would be used as part of the treatment regimen. For patients with low vitamin D concentrations, defined as a 25(OH)D concentration of 12 to 20 ng/mL (30 to 50 nmol/L), Vitamin D may also be administered during treatment descried herein. […]

[4] = test system: distal radial fracture; details: cited from earlier work; for time to radiographic healing: placebo 9.1 weeks
[5] = test system: osteosarcoma; details: over 16,000 unique patients, post-market analysis; cited from earlier work
[6] = cited from earlier work; for bioavailability: after subcutaneous injection
[7] = Plasma teriparatide concentrations after a single subcutaneous injection (FIG. 9); details: sc
Excerpt: as §1

Compound: CC[C@H](C)[C@H](NC(=O)[C@H](CCC(=O)O)NC(=O)[C@H](CO)NC(=O)[C@@H](NC(=O)[C@@H](N)CO)C(C)C)C(=O)N[C@@H](CCC(N)=O)C(=O)N[C@@H](CC(C)C)C(=O)N[C@@H](CCSC)C(=O)N[C@@H](Cc1cnc[nH]1)C(=O)N[C@@H](CC(N)=O)C(=O)N[C@@H](CC(C)C)C(=O)NCC(=O)N[C@@H](CCCCN)C(=O)N[C@@H](Cc1cnc[nH]1)C(=O)N[C@@H](CC(C)C)C(=O)N[C@@H](CC(N)=O)C(=O)N[C@@H](CO)C(=O)N[C@@H](CCSC)C(=O)N[C@@H](CCC(=O)O)C(=O)N[C@@H](CCCN=C(N)N)C(=O)N[C@H](C(=O)N[C@@H](CCC(=O)O)C(=O)N[C@@H](Cc1c[nH]c2ccccc12)C(=O)N[C@@H](CC(C)C)C(=O)N[C@@H](CCCN=C(N)N)C(=O)N[C@@H](CCCCN)C(=O)N[C@@H](CCCCN)C(=O)N[C@@H](CC(C)C)C(=O)N[C@@H](CCC(N)=O)C(=O)N[C@@H](CC(=O)O)C(=O)N[C@H](C(=O)N[C@@H](Cc1cnc[nH]1)C(=O)N[C@@H](CC(N)=O)C(=O)N[C@@H](Cc1ccccc1)C(=O)O)C(C)C)C(C)C [teriparatide]
- AUCinf ([1]; 28.2 ug): 28.07 ± 2.47 ng/min/mL
- AUClast ([1]; 28.2 ug): 25.84 ± 3.18 ng/min/mL
- AUCinf ([1]; 56.5 ug): 52.73 ± 10.03 ng/min/mL
- AUClast ([1]; 56.5 ug): 49.91 ± 11.33 ng/min/mL
- time after the injection at which Cmax was achieved ([1]; 56.5 ug): 1 h
- mechanical strength of fractures ([2]; 60 and 200 kg/day once daily): increased
- callus quantity ([2]; once daily): increased
- healing of the subjects' stress fractures [3]: resulted in healing
- time to healing compared with placebo group ([4]; 20 mcg daily for 8 weeks): shorter
- time to radiographic healing ([4]; 20 mcg daily for 8 weeks): 7.4 weeks
- improvement in healing time compared with placebo ([4]; 40 mcg daily for 8 weeks): not a statistically significant improvement
- time to radiographic healing ([4]; 40 mcg daily for 8 weeks): 8.8 weeks
- reported cases of osteosarcoma in humans [5]: have not been any reported cases
- bioavailability [6]: 95%
- Absolute bioavailability ([6]; subcutaneous injection): 95%
- half-life ([6]; subcutaneous injection): approximately 1 hour
- half-life after subcutaneous injection ([6]; subcutaneous injection): approximately 1 hours
- time to peak concentrations ([6]; subcutaneous injection): 30 min
- Cmax ([7]; 28.2 ug): 0.193 ± 0.0353 ng/mL
- Tmax ([7]; 28.2 ug): 0.9 h
- half-life ([7]; 28.2 ug): 1.16 ± 0.217 h
- Cmax ([7]; 56.5 ug): 0.338 ± 0.134 ng/mL
- Tmax ([7]; 56.5 ug): 0.875 h
- half-life ([7]; 56.5 ug): 1.29 ± 0.587 h

Compound: PTH 1-84: full-length human parathyroid hormone, an 84 amino acids peptide with N-terminal and C-terminal regions
- bioavailability [6]: 55%
- duration of action ([6]; compared with PTH 1-34): longer
- half-life after subcutaneous injection ([6]; subcutaneous injection): approximately 2.5 hours
